By EC50 is commonly meant the concentration at which the effect is half-maximal.

The results in this text go back to BindingDB's records for doi:10.1021/jm00020a029 (Merck Research Laboratories, 1995).

Test [1] can be described thus: Evaluated for the activity of Radio-ligand Peptides upon the activation of human thrombin receptor measured by platelet aggregation.
The target of test [2] is T1, Proteinase-activated receptor 1 (Homo sapiens, UniProt P25116).
T1 sequence (P25116 whole entry): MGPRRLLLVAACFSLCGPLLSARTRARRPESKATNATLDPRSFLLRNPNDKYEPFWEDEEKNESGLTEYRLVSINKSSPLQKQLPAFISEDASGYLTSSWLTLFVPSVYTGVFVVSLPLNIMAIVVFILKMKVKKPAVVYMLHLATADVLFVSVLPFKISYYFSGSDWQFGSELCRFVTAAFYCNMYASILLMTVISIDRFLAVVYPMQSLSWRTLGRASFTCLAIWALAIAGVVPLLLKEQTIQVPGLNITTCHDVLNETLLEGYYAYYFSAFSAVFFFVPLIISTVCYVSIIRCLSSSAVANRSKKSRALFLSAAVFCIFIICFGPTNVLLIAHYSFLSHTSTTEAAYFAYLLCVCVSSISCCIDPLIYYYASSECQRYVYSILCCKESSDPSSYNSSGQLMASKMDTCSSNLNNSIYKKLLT
Kind of test: Evaluated for the activation of human thrombin receptor measured by platelet aggregation.

The nature of test [3]: Evaluated for the activation of human thrombin receptor measured by platelet aggregation.

*1 amine or outer side, *2 acyl side, *3 side chain or, on linkers, in order; H or OH if unused. Where a SMILES comes first, the peptide text is derived from it. [ ]: non-standard residue; d: D form. ξ: configuration not given here. Phe(3,4-Cl2) = N[C@@H](Cc1ccc(Cl)c(Cl)c1)C(=O)O; X1 = COc1c(I)cc(C[C@H](N[*:1])C(=O)[*:2])cc1I; ξTyr(3,5-I2) = NC(Cc1cc(I)c(O)c(I)c1)C(=O)O; Tyr(3-I) = N[C@@H](Cc1ccc(O)c(I)c1)C(=O)O; Phe(4-F) = N[C@@H](Cc1ccc(F)cc1)C(=O)O; hArg = N=C(N)NCCCC[C@H](N)C(=O)O; Cha = N[C@@H](CC1CCCCC1)C(=O)O; NMeA = CN[C@@H](C)C(=O)O

`C[C@H](N)C(=O)N[C@@H](Cc1ccc(F)cc1)C(=O)N[C@@H](CCCNC(=N)N)C(=O)N[C@@H](CC1CCCCC1)C(=O)N[C@@H](CCCCNC(=N)N)C(=O)NC(Cc1cc(I)c(O)c(I)c1)C(N)=O` (stereo partly drawn) [(S)-2-((S)-2-{(S)-2-[(S)-2-((S)-2-Amino-propionylamino)-3-(4-fluoro-phenyl)-propionylamino]-5-guanidino-pentanoylamino}-3-cyclohexyl-propionylamino)-6-guanidino-hexanoic acid [1-carbamoyl-2-(4-hydroxy-3,5-diiodo-phenyl)-ethyl]-amide] (H-A[Phe(4-F)]R[Cha][hArg][ξTyr(3,5-I2)]-NH2) came in with an EC50 in test [1] of 150 nM.
For the compound `C[C@H](N)C(=O)N[C@@H](Cc1ccc(F)cc1)C(=O)N[C@@H](CCCN=C(N)N)C(=O)N[C@@H](CC1CCCCC1)C(=O)N[C@@H](CCCCN=C(N)N)C(=O)N[C@@H](Cc1ccc(O)c(I)c1)C(N)=O` [(S)-2-((S)-2-{(S)-2-[(S)-2-((S)-2-Amino-propionylamino)-3-(4-fluoro-phenyl)-propionylamino]-5-guanidino-pentanoylamino}-3-cyclohexyl-propionylamino)-6-guanidino-hexanoic acid [1-carbamoyl-2-(4-hydroxy-3-iodo-phenyl)-ethyl]-amide] (H-A[Phe(4-F)]R[Cha][hArg][Tyr(3-I)]-NH2), in test [1], it took 30 nM to reach a half-maximal effect (EC50).
On to `C[C@H](N)C(=O)N[C@@H](Cc1ccc(F)cc1)C(=O)N[C@@H](CCCNC(=N)N)C(=O)N[C@@H](CC1CCCCC1)C(=O)N[C@@H](CCCCNC(=N)N)C(=O)N[C@@H](Cc1ccc(O)cc1)C(N)=O` [(S)-2-((S)-2-{(S)-2-[(S)-2-((S)-2-Amino-propionylamino)-3-(4-fluoro-phenyl)-propionylamino]-5-guanidino-pentanoylamino}-3-cyclohexyl-propionylamino)-6-guanidino-hexanoic acid [1-carbamoyl-2-(4-hydroxy-phenyl)-ethyl]-amide] (H-A[Phe(4-F)]R[Cha][hArg]Y-NH2), for which, in test [2], the EC50 turned out to be 160 nM.
Regarding `CC(C)C[C@H](NC(=O)[C@H](Cc1ccc(Cl)c(Cl)c1)NC(=O)[C@H](C)N)C(=O)N[C@@H](CC1CCCCC1)C(=O)N[C@@H](CCCNC(=N)N)C(N)=O` [(S)-2-[(S)-2-((S)-2-Amino-propionylamino)-3-(3,4-dichloro-phenyl)-propionylamino]-4-methyl-pentanoic acid [(S)-1-((S)-1-carbamoyl-4-guanidino-butylcarbamoyl)-2-cyclohexyl-ethyl]-amide] (H-A[Phe(3,4-Cl2)]L[Cha]R-NH2), the figures for the EC50 in test [1] and in test [3] were 300 nM and 270 nM, respectively.
As for `COc1c(I)cc(C[C@H](NC(=O)[C@H](Cc2ccc(Cl)c(Cl)c2)NC(=O)[C@H](C)N)C(=O)N[C@@H](CC2CCCCC2)C(=O)N[C@@H](CCCNC(=N)N)C(N)=O)cc1I` [(S)-2-{(S)-2-[(S)-2-[(S)-2-((S)-2-Amino-propionylamino)-3-(3,4-dichloro-phenyl)-propionylamino]-3-(3,5-diiodo-4-methoxy-phenyl)-propionylamino]-3-cyclohexyl-propionylamino}-5-guanidino-pentanoic acid amide] (H-A[Phe(3,4-Cl2)][X1][Cha]R-NH2), the results for the EC50 in test [1] and in test [3] were 1500 nM and 10 nM, respectively.
As for `CC(C)C[C@H](NC(=O)[C@H](CC(C)C)NC(=O)[C@H](Cc1ccccc1)NC(=O)[C@@H](N)CC(=O)O)C(=O)N[C@@H](CCCNC(=N)N)C(N)=O` [(S)-3-Amino-N-((S)-1-{(S)-1-[(S)-1-((S)-1-carbamoyl-4-guanidino-butylcarbamoyl)-3-methyl-butylcarbamoyl]-3-methyl-butylcarbamoyl}-2-phenyl-ethyl)-succinamic acid] (H-DFLLR-NH2), the EC50 in test [3] was > 800000 nM.
In the case of `CN[C@@H](C)C(=O)N[C@@H](Cc1ccccc1)C(=O)N[C@@H](CC(C)C)C(=O)N[C@@H](CC(C)C)C(=O)N[C@@H](CCCNC(=N)N)C(N)=O` [(S)-4-Methyl-2-[(S)-2-((S)-2-methylamino-propionylamino)-3-phenyl-propionylamino]-pentanoic acid [(S)-1-((S)-1-carbamoyl-4-guanidino-butylcarbamoyl)-3-methyl-butyl]-amide] (H-[NMeA]FLLR-NH2), the EC50 in test [3] was determined as 600000 nM.
Same read-out and setting: next, `CC(C)C[C@H](NC(=O)[C@H](CC(C)C)NC(=O)[C@H](Cc1ccccc1)NC(=O)[C@@H](N)CO)C(=O)N[C@@H](CCCNC(=N)N)C(=O)N[C@@H](CC(N)=O)C(=O)N1CCC[C@H]1C(=O)N[C@@H](CC(N)=O)C(=O)N[C@@H](CC(=O)O)C(N)=O` [SFLLRDPQD-NH2] (H-SFLLRNPND-NH2): 3300 nM.
